Measurements reported in the supplement of paper PMC11061612.

Legend:
[1] = test system: 8505C (Thyroid Gland Carcinoma); assay: Bliss excess, mean over the matrix (fraction); higher = more synergy
Method in brief: (§1)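 After 24 hours at 37°C and 5% CO2 in 1536-well plates, cells in DMEM/F12 or RPMI plus 10% FBS received two-drug dose matrices for 72 hours. Viability came from CellTiter-Glo 2.0 luminescence and was scaled as inhibition, anchored at 0 by vehicle wells and at 1 by blank wells. Combination Emax is taken as the second-highest inhibition in the matrix, and Bliss excess as the observed combination effect less EA + EB − EA·EB, with EA and EB the single-agent effects.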

[2] = test system: CHSA8926 (Chondrosarcoma); assay: as above
Method in brief: as §1

[3] = test system: DAN-G (Pancreatic Carcinoma); assay: as above
Method in brief: as §1

[4] = test system: ESO51 (Esophageal Adenocarcinoma); assay: as above
Method in brief: as §1

G-361 (Melanoma) [5] = assay: as above
Method in brief: as §1

[6] = test system: H9 (T-Cell Non-Hodgkin's Lymphoma); assay: as above
Method in brief: as §1

[7] = test system: HCC1187 (Breast Carcinoma); assay: as above
Method in brief: as §1

[8] = test system: IM-95 (Gastric Carcinoma); assay: as above
Method in brief: as §1

[9] = test system: JHH-4 (Hepatocellular Carcinoma); assay: as above
Method in brief: as §1

[10] = test system: KMS-12-BM (Plasma Cell Myeloma); assay: as above
Method in brief: as §1

[11] = test system: KY821 (Acute Myeloid Leukemia); assay: as above
Method in brief: as §1

[12] = test system: MOLM-13 (Acute Myeloid Leukemia); assay: as above
Method in brief: as §1

[13] = test system: NCI-H661 (Non-Small Cell Lung Carcinoma); assay: as above
Method in brief: as §1

[14] = test system: PC-3 (Prostate Carcinoma); assay: as above
Method in brief: as §1

RD (Rhabdomyosarcoma) [15] = assay: as above
Method in brief: as §1

[16] = test system: RPMI-8226 (Plasma Cell Myeloma); assay: as above
Method in brief: as §1

[17] = test system: SK-GT-2 (Gastric Carcinoma); assay: as above
Method in brief: as §1

[18] = test system: SNU-398 (Hepatocellular Carcinoma); assay: as above
Method in brief: as §1

[19] = test system: SU-DHL-5 (B-Cell Non-Hodgkin's Lymphoma); assay: as above
Method in brief: as §1

[20] = test system: SUP-B15 (B-Lymphoblastic Leukemia); assay: as above
Method in brief: as §1

[21] = test system: 8505C (Thyroid Gland Carcinoma); assay: combination Emax (second highest fraction inhibited in the dose matrix, 72 h); higher = more inhibition; extreme values may be limits of the assay
Method in brief: as §1

[22] = test system: CHSA8926 (Chondrosarcoma); assay: as above
Method in brief: as §1

[23] = test system: DAN-G (Pancreatic Carcinoma); assay: as above
Method in brief: as §1

[24] = test system: ESO51 (Esophageal Adenocarcinoma); assay: as above
Method in brief: as §1

G-361 (Melanoma) [25] = assay: as above
Method in brief: as §1

[26] = test system: H9 (T-Cell Non-Hodgkin's Lymphoma); assay: as above
Method in brief: as §1

[27] = test system: HCC1187 (Breast Carcinoma); assay: as above
Method in brief: as §1

[28] = test system: IM-95 (Gastric Carcinoma); assay: as above
Method in brief: as §1

[29] = test system: JHH-4 (Hepatocellular Carcinoma); assay: as above
Method in brief: as §1

[30] = test system: KMS-12-BM (Plasma Cell Myeloma); assay: as above
Method in brief: as §1

[31] = test system: KY821 (Acute Myeloid Leukemia); assay: as above
Method in brief: as §1

[32] = test system: MOLM-13 (Acute Myeloid Leukemia); assay: as above
Method in brief: as §1

[33] = test system: NCI-H661 (Non-Small Cell Lung Carcinoma); assay: as above
Method in brief: as §1

[34] = test system: PC-3 (Prostate Carcinoma); assay: as above
Method in brief: as §1

RD (Rhabdomyosarcoma) [35] = assay: as above
Method in brief: as §1

[36] = test system: RPMI-8226 (Plasma Cell Myeloma); assay: as above
Method in brief: as §1

[37] = test system: SK-GT-2 (Gastric Carcinoma); assay: as above
Method in brief: as §1

[38] = test system: SNU-398 (Hepatocellular Carcinoma); assay: as above
Method in brief: as §1

[39] = test system: SU-DHL-5 (B-Cell Non-Hodgkin's Lymphoma); assay: as above
Method in brief: as §1

[40] = test system: SUP-B15 (B-Lymphoblastic Leukemia); assay: as above
Method in brief: as §1

[41] = test system: CW-2 (Colorectal Carcinoma); assay: Bliss excess, mean over the matrix (fraction); higher = more synergy
Method in brief: as §1

[42] = test system: DMS-114 (Small Cell Lung Carcinoma); assay: as above
Method in brief: as §1

[43] = test system: KU812 (Chronic Myelogenous Leukemia); assay: as above
Method in brief: as §1

[44] = test system: KYSE-270 (Esophageal Squamous Cell Carcinoma); assay: as above
Method in brief: as §1

M059J (Glioblastoma) [45] = assay: as above
Method in brief: as §1

[46] = test system: MN-60 (B-Lymphoblastic Leukemia); assay: as above
Method in brief: as §1

[47] = test system: MOG-G-CCM (Low Grade Glioma); assay: as above
Method in brief: as §1

[48] = test system: NCCIT (Other Solid Carcinomas); assay: as above
Method in brief: as §1

NCI-H2731 (Mesothelioma) [49] = assay: as above
Method in brief: as §1

[50] = test system: NCI-H3122 (Lung Adenocarcinoma); assay: as above
Method in brief: as §1

[51] = test system: NCI-H520 (Squamous Cell Lung Carcinoma); assay: as above
Method in brief: as §1

[52] = test system: NCI-H526 (Small Cell Lung Carcinoma); assay: as above
Method in brief: as §1

[53] = test system: NCI-H929 (Plasma Cell Myeloma); assay: as above
Method in brief: as §1

[54] = test system: OCI-AML3 (Acute Myeloid Leukemia); assay: as above
Method in brief: as §1

SJSA-1 (Osteosarcoma) [55] = assay: as above
Method in brief: as §1

[56] = test system: SK-GT-4 (Esophageal Adenocarcinoma); assay: as above
Method in brief: as §1

[57] = test system: ST486 (Burkitt's Lymphoma); assay: as above
Method in brief: as §1

[58] = test system: T-T (Esophageal Squamous Cell Carcinoma); assay: as above
Method in brief: as §1

[59] = test system: VMRC-RCZ (Kidney Carcinoma); assay: as above
Method in brief: as §1

[60] = test system: COR-L279 (Small Cell Lung Carcinoma); assay: combination Emax (second highest fraction inhibited in the dose matrix, 72 h); higher = more inhibition; extreme values may be limits of the assay
Method in brief: as §1

[61] = test system: CW-2 (Colorectal Carcinoma); assay: as above
Method in brief: as §1

[62] = test system: DMS-114 (Small Cell Lung Carcinoma); assay: as above
Method in brief: as §1

[63] = test system: KU812 (Chronic Myelogenous Leukemia); assay: as above
Method in brief: as §1

[64] = test system: KYSE-270 (Esophageal Squamous Cell Carcinoma); assay: as above
Method in brief: as §1

M059J (Glioblastoma) [65] = assay: as above
Method in brief: as §1

[66] = test system: MN-60 (B-Lymphoblastic Leukemia); assay: as above
Method in brief: as §1

[67] = test system: MOG-G-CCM (Low Grade Glioma); assay: as above
Method in brief: as §1

[68] = test system: NCCIT (Other Solid Carcinomas); assay: as above
Method in brief: as §1

NCI-H2731 (Mesothelioma) [69] = assay: as above
Method in brief: as §1

[70] = test system: NCI-H3122 (Lung Adenocarcinoma); assay: as above
Method in brief: as §1

[71] = test system: NCI-H520 (Squamous Cell Lung Carcinoma); assay: as above
Method in brief: as §1

[72] = test system: NCI-H526 (Small Cell Lung Carcinoma); assay: as above
Method in brief: as §1

[73] = test system: NCI-H929 (Plasma Cell Myeloma); assay: as above
Method in brief: as §1

[74] = test system: OCI-AML3 (Acute Myeloid Leukemia); assay: as above
Method in brief: as §1

SJSA-1 (Osteosarcoma) [75] = assay: as above
Method in brief: as §1

[76] = test system: SK-GT-4 (Esophageal Adenocarcinoma); assay: as above
Method in brief: as §1

[77] = test system: ST486 (Burkitt's Lymphoma); assay: as above
Method in brief: as §1

[78] = test system: T-T (Esophageal Squamous Cell Carcinoma); assay: as above
Method in brief: as §1

[79] = test system: VMRC-RCZ (Kidney Carcinoma); assay: as above
Method in brief: as §1
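Throughout, for Bliss excess, mean over the matrix: after 72 h of two-drug dosing.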

SMILES: CC(=O)c1c(C)c2cnc(Nc3ccc(N4CCNCC4)cn3)nc2n(C2CCCC2)c1=O [Palbociclib] + CN(CC[C@H](CSC1=CC=CC=C1)NC2=C(C=C(C=C2)S(=O)(=O)NC(=O)C3=CC=C(C=C3)N4CCC(CC4)[C@H](C5=CC=CC=C5C6=CC=C(C=C6)Cl)O)S(=O)(=O)C(F)(F)F)CCO [AZD4320] (first compound max 10 µM, 7x7, partner max 1 µM)
- Bliss excess [1]: -0.0924
- Bliss excess [2]: -0.0753
- Bliss excess [3]: -0.0408
- Bliss excess [4]: -0.0853
- Bliss excess (G-361 (Melanoma) [5]): -0.0222
- Bliss excess [6]: -0.0114
- Bliss excess [7]: -0.0429
- Bliss excess [8]: -0.133
- Bliss excess [9]: -0.0051
- Bliss excess [10]: 0.0159
- Bliss excess [11]: -0.0069
- Bliss excess [12]: -0.0259
- Bliss excess [13]: -0.0643
- Bliss excess [14]: -0.0472
- Bliss excess (RD (Rhabdomyosarcoma) [15]): 0.0323
- Bliss excess [16]: -0.0531
- Bliss excess [17]: -0.0151
- Bliss excess [18]: -0.0484
- Bliss excess [19]: -0.0381
- Bliss excess [20]: -0.0515
- combination Emax [21]: 0.0974
- combination Emax [22]: 0.741
- combination Emax [23]: 0.288
- combination Emax [24]: 0.15
- combination Emax (G-361 (Melanoma) [25]): 0.598
- combination Emax [26]: 0.983
- combination Emax [27]: 0.239
- combination Emax [28]: 0.471
- combination Emax [29]: 0.703
- combination Emax [30]: 1
- combination Emax [31]: 1
- combination Emax [32]: 1
- combination Emax [33]: 0.107
- combination Emax [34]: 0.159
- combination Emax (RD (Rhabdomyosarcoma) [35]): 0.875
- combination Emax [36]: 0.95
- combination Emax [37]: 0.531
- combination Emax [38]: 0.308
- combination Emax [39]: 1
- combination Emax [40]: 1

SMILES: N#Cc1cnc(Nc2cc(NC[C@H]3CNCCO3)c(C(F)(F)F)cn2)cn1 [SRA737] + Nc1ccn([C@@H]2O[C@H](CO)[C@@H](O)C2(F)F)c(=O)n1 [Gemcitabine] (first compound max 10 µM, 7x7, partner max 0.3 µM)
- Bliss excess [41]: 0.0386
- Bliss excess [42]: 0.087
- Bliss excess [43]: 0.0421
- Bliss excess [44]: 0.0675
- Bliss excess (M059J (Glioblastoma) [45]): 0.0426
- Bliss excess [46]: -0.0116
- Bliss excess [47]: 0.0991
- Bliss excess [48]: 0.0492
- Bliss excess (NCI-H2731 (Mesothelioma) [49]): 0.0907
- Bliss excess [50]: 0.0479
- Bliss excess [51]: 0.0706
- Bliss excess [52]: 0.0912
- Bliss excess [53]: 0.0643
- Bliss excess [54]: -0.0422
- Bliss excess (SJSA-1 (Osteosarcoma) [55]): -0.0857
- Bliss excess [56]: 0.0313
- Bliss excess [57]: -0.006
- Bliss excess [58]: 0.144
- Bliss excess [59]: 0.0299
- combination Emax [60]: 0.986
- combination Emax [61]: 0.623
- combination Emax [62]: 0.715
- combination Emax [63]: 0.813
- combination Emax [64]: 0.991
- combination Emax (M059J (Glioblastoma) [65]): 0.794
- combination Emax [66]: 0.745
- combination Emax [67]: 0.857
- combination Emax [68]: 0.816
- combination Emax (NCI-H2731 (Mesothelioma) [69]): 0.515
- combination Emax [70]: 0.826
- combination Emax [71]: 0.892
- combination Emax [72]: 0.942
- combination Emax [73]: 0.922
- combination Emax [74]: 0.93
- combination Emax (SJSA-1 (Osteosarcoma) [75]): 0.681
- combination Emax [76]: 0.491
- combination Emax [77]: 0.968
- combination Emax [78]: 0.737
- combination Emax [79]: 0.518
